# Laboratory results as given in patent publication US5756473A, “6-O-methyl erythromycin D and process for making” (Abbott Laboratories, priority 1995, dated 1998).
# Where two headings read alike, the source gives them in different places.
# Tests used:
# [1] = test system: Staphylococcus aureus; assay: In vitro antibacterial activity, agar dilution MIC (Staphylococcus aureus); type: cell-based; details: BHI agar, 35-37 °C, 20 to 24 hours
# Method: (§1) The 6-O-methyl erythromycin D compound of the present invention was assayed in vitro for antibacterial activity as follows: Twelve petri dishes containing successive aqueous dilutions of the test compound mixed with 10 mL of sterilized Brain Heart Infusion (BHI) agar (Difco 0418-01-5) were prepared. Each plate was inoculated with 1:100 (or 1:10 for slow-growing strains, such as Micrococcus and Streptococcus) dilutions of up to 32 different microorganisms, using a Steers replicator block. The inoculated plates were incubated at 35°-37° C. for 20 to 24 hours. In addition, a control plate, using BHI agar containing no test compound, was prepared and incubated at the beginning and end of each test.
# (§2) An additional plate containing a compound having known susceptibility patterns for the organisms being tested and belonging to the same antibiotic class as the test compound was also prepared and incubated as a further control, as well as to provide test-to-test comparability. Erythromycin A was used for this purpose.
# (§3) After incubation, each disk was read. The minimum inhibitory concentration (MIC) was defined as the lowest concentration of drug yielding no growth, a slight haze, or sparsely isolated colonies on the inoculum spot as compared to the growth control.
# [2] = test system: Staphylococcus epidermidis; assay: In vitro antibacterial activity, agar dilution MIC (Staphylococcus epidermidis); type: cell-based
# Method: as §1, §2, §3
# [3] = test system: Enterococcus faecium; assay: In vitro antibacterial activity, agar dilution MIC (Enterococcus faecium); type: cell-based; details: ATCC8043, strain ATCC 8043, BHI agar, 35-37 °C, 20 to 24 hours
# [4] = test system: Streptococcus bovis; assay: In vitro antibacterial activity, agar dilution MIC (Streptococcus bovis); type: cell-based; details: Streptococcus equinus
# Method: as §1, §2, §3
# [5] = test system: Streptococcus agalactiae; assay: In vitro antibacterial activity, agar dilution MIC (Streptococcus agalactiae); type: cell-based
# Method: as §1, §2, §3
# [6] = test system: Streptococcus pyogenes; assay: In vitro antibacterial activity, agar dilution MIC (Streptococcus pyogenes); type: cell-based; details: 35-37 °C, 20 to 24 hours
# Method: as §1, §2, §3
# [7] = test system: Micrococcus luteus; assay: In vitro antibacterial activity, agar dilution MIC (Micrococcus luteus); type: cell-based
# Method: as §1, §2, §3
# [8] = test system: Escherichia coli; assay: In vitro antibacterial activity, agar dilution MIC (Escherichia coli); type: cell-based; details: 35-37 °C, 20 to 24 hours
# [9] = test system: Enterobacter aerogenes; assay: In vitro antibacterial activity, agar dilution MIC (Enterobacter aerogenes); type: cell-based; details: Klebsiella aerogenes, ATCC13048; strain ATCC 13048; BHI agar, 35-37 °C, 20 to 24 hours
# [10] = test system: Acinetobacter calcoaceticus; assay: microbe, parasite or virus in culture
# Method: as §1, §2, §3
# [11] = test system: Klebsiella pneumoniae; assay: microbe, parasite or virus in culture; details: ATCC8045
# Method: as §1, §2, §3
# [12] = test system: Providencia stuartii; assay: In vitro antibacterial activity, agar dilution MIC (Providencia stuartii); type: cell-based; details: strain CMX 640, BHI agar, 35-37 °C, 20 to 24 hours
# [13] = test system: Pseudomonas aeruginosa; assay: In vitro antibacterial activity, agar dilution MIC (Pseudomonas aeruginosa); type: cell-based; details: for MIC: Pseudomonas aeruginosa
# Method: as §1, §2, §3
# [14] = test system: Mycobaceterium smegmatis; assay: In vitro antibacterial activity, agar dilution MIC (Mycobaceterium smegmatis); type: cell-based
# Method: as §1, §2, §3
# [15] = test system: Nocardia asteroides; assay: In vitro antibacterial activity, agar dilution MIC (Nocardia asteroides); type: cell-based; details: ATCC9970, strain ATCC 9970, BHI agar, 35-37 °C, 20 to 24 hours
# Method: as §1, §2, §3
# [16] = test system: Candida albicans; assay: microbe, parasite or virus in culture
# Method: as §1, §2, §3
# [17] = test system: microorganisms; assay: In vitro assay of antibacterial activity (overall conclusion); type: cell-based; details: overall conclusion from Table 1
# Method: Erythromycin A was used for this purpose.
# After incubation, each disk was read.
# [18] = Staphylococcus aureus, strain 1775 Cipro R
# [19] = Staphylococcus aureus, strain A5177
# [20] = Staphylococcus aureus, strain A5278
# [21] = strain DC-2, BHI agar, read-out: MIC
# [22] = strain Juhl, BHI agar, read-out: MIC
# [23] = strain KNK 437, BHI agar, read-out: MIC
# [24] = strain SS, BHI agar, read-out: MIC
# [25] = strain 2862, BHI agar, 35-37 °C, 20 to 24 hours
# [26] = strain 5263, BHI agar, 35-37 °C, 20 to 24 hours
# [27] = strain A5007, BHI agar, 35-37 °C, 20 to 24 hours
# [28] = strain K799/WT, BHI agar, 35-37 °C, 20 to 24 hours
Structure (SMILES),"MIC [1, 18] [µg/mL]","MIC [1, 19] [µg/mL]","MIC [1, 20] [µg/mL]",MIC [3] [µg/mL],"MIC ([6]; strain 930 const, BHI agar) [µg/mL]","MIC ([6]; strain 2548 induc, BHI agar) [µg/mL]",MIC [7] [µg/mL],"MIC [8, 21] [µg/mL]","MIC ([8]; strain H560, BHI agar) [µg/mL]","MIC [8, 22] [µg/mL]","MIC [8, 23] [µg/mL]","MIC [8, 24] [µg/mL]",MIC [9] [µg/mL],MIC [10] [µg/mL],MIC [11] [µg/mL],MIC [12] [µg/mL],MIC [13] [µg/mL],"MIC [13, 25] [µg/mL]","MIC [13, 26] [µg/mL]","MIC [13, 27] [µg/mL]",other results
"CC[C@H]1OC(=O)[C@H](C)[C@@H](O[C@H]2C[C@@](C)(OC)[C@@H](O)[C@H](C)O2)[C@H](C)[C@@H](O[C@@H]2O[C@H](C)C[C@H](N(C)C)[C@H]2O)[C@](C)(O)C[C@@H](C)C(=O)[C@H](C)[C@@H](O)[C@]1(C)O [Erythromycin A, reference compound]",> 100,1.56,> 100,0.05,> 100,6.2,0.01,50,2.5,50,50,0.2,100,12.5,50,> 100,> 100,> 100,> 100,> 100,"MIC ([1]; Staphylococcus aureus, ATCC6538P, strain ATCC 6538P): 0.2 µg/mL; MIC ([1]; Staphylococcus aureus, NCTC10649, strain NCTC 10649): 0.2 µg/mL; MIC ([1]; Staphylococcus aureus, strain CMX 553): 0.2 µg/mL; MIC ([1]; Staphylococcus aureus, strain 642a): 0.2 µg/mL; MIC [2]: 0.2 µg/mL; MIC [4]: 0.02 µg/mL; MIC [5]: 0.05 µg/mL; MIC ([6]; strain EES61, BHI agar): 0.05 µg/mL; MIC ([7]; ATCC9341): 0.05 µg/mL; MIC ([13]; strain K799/61, BHI agar, 35-37 °C, 20 to 24 hours): > 100 µg/mL; MIC [13, 28]: > 100 µg/mL; MIC [14]: 12.5 µg/mL; MIC [15]: 0.05 µg/mL"
"CC[C@H]1OC(=O)[C@H](C)[C@@H](O[C@H]2C[C@@](C)(O)[C@@H](O)[C@H](C)O2)[C@H](C)[C@@H](O[C@@H]2O[C@H](C)C[C@H](N(C)C)[C@H]2O)[C@](C)(OC)C[C@@H](C)C(=O)[C@H](C)[C@@H](O)[C@H]1C [Example 3, 6-O-Methylerythromycin D]",> 100,3.1,> 100,0.1,> 100,3.1,1.56,> 100,> 100,> 100,> 100,0.39,> 100,> 100,> 100,> 100,1.56,> 100,> 100,> 100,"MIC ([1]; Staphylococcus aureus, ATCC6538P, strain ATCC 6538P, read-out: MIC): 0.39 µg/mL; MIC ([1]; Staphylococcus aureus, NCTC10649, strain NCTC 10649, read-out: MIC): 0.39 µg/mL; MIC ([1]; Staphylococcus aureus, strain 642a, read-out: MIC): 0.39 µg/mL; MIC ([1]; strain CMX 553): 0.39 µg/mL; MIC ([2]; strain 3519, BHI agar, 35-37 °C, 20 to 24 hours, read-out: MIC): 0.39 µg/mL; MIC ([4]; strain A5169, BHI agar, 35-37 °C, 20 to 24 hours, read-out: MIC): 0.01 µg/mL; MIC ([5]; strain 508, BHI agar, 35-37 °C, 20 to 24 hours, read-out: MIC): 0.05 µg/mL; MIC ([6]; strain EES61, BHI agar, read-out: MIC): 0.05 µg/mL; MIC ([7]; ATCC9341, strain ATCC 9341, BHI agar, 35-37 °C, 20 to 24 hours, read-out: MIC): 0.05 µg/mL; MIC [16]: > 100 µg/mL; antibacterial effectiveness (in words) ([13]; Pseudomonas aeruginosa K799/61, comparison with Erythromycin A control): significantly more effective; MIC ([13]; strain BMH10, BHI agar, 35-37 °C, 20 to 24 hours): > 100 µg/mL; MIC [13, 28]: > 100 µg/mL; antibacterial effectiveness (in words) ([14]; Mycobaceterium smegmatis ATCC 114, comparison with Erythromycin A control): significantly more effective; MIC ([14]; strain ATCC 114, BHI agar, 35-37 °C, 20 to 24 hours, read-out: MIC): 0.78 µg/mL; MIC [15]: 0.05 µg/mL; antibacterial activity (in words) [17]: effective antibacterial agent"
